Results published in ChEMBL document CHEMBL1201862, “PubChem BioAssay data set” (2004).
Active and inactive are the calls of the source.

Legend:
[1] = molecular target: Eukaryotic translation initiation factor 4E (Mus musculus, UniProt P63073); test: blockers of eIF4G binding by eIF4E – biochemical, TR-FRET, dose response (AID 855); assay type: functional;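 note: potency for disrupting eIF4E binding to eIF4GI seen as loss of FRET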
[2] = tested on: A549; test: viability loss in A549 cells – cell-based, plate reader, cherry-pick samples, cytotoxicity control, dose response (AID 687028); assay type: functional; conditions: Homo sapiens
[3] = tested on: HEK293; test: inhibition of NOD1-driven NF-kB reporter – cell-based, luminescence, uHTS, primary screen (AID 1578); assay type: functional; conditions: Homo sapiens
[4] = tested on: HEK293; test: cells; assay type: functional, cell-based; conditions: Homo sapiens
[5] = molecular target: T1, Heat shock factor protein 1 (Mus musculus, UniProt P38532); test: decrease of HSF1-responsive luciferase luminescence – cell-based, NIH3T3, dose retest, confirmation (AID 2382); assay type: functional;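 note: NIH3T3 fibroblasts with HSF1-driven luciferase reporter stressed by proteasome inhibitor MG132; luminescence from HSF1-driven luciferase expression after 8 hours of MG132 stress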
T1 sequence (P38532 whole entry): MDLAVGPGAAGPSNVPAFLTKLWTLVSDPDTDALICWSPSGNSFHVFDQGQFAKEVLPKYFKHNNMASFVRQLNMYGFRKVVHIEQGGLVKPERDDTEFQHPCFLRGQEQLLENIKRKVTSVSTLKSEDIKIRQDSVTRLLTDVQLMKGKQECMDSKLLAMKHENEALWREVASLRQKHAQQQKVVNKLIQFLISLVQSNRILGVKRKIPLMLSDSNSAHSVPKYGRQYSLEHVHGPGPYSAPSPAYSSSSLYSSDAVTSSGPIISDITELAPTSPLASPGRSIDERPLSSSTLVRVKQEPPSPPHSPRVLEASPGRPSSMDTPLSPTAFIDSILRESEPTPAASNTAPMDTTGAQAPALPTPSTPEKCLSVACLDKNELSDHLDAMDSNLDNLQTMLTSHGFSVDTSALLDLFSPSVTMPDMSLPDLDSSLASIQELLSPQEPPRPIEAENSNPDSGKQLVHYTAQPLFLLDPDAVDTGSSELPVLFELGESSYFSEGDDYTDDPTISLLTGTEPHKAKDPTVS

[6] = tested on: HEK293; test: cells; assay type: functional, cell-based; conditions: Homo sapiens; remark: listed apart in the source
[7] = molecular target: Nucleotide-binding oligomerization domain-containing protein 2 (Homo sapiens, UniProt Q9HC29); test: inhibition of NOD2-driven NF-kB reporter – cell-based, luminescence, uHTS, HEK293 (AID 1566); assay type: functional
[8] = tested on: HEK293; test: NOD2 signaling inhibitors in MDP-stimulated cells, cell-based, uHTS, luminescence (AID 2001); assay type: functional; conditions: Homo sapiens
[9] = tested on: HEK293; test: cells; assay type: functional, cell-based; conditions: Homo sapiens; remark: listed apart in the source
[10] = molecular target: T2, Protein skinhead-1 (Caenorhabditis elegans, UniProt P34707); assay type: functional
T2 sequence (P34707 whole entry): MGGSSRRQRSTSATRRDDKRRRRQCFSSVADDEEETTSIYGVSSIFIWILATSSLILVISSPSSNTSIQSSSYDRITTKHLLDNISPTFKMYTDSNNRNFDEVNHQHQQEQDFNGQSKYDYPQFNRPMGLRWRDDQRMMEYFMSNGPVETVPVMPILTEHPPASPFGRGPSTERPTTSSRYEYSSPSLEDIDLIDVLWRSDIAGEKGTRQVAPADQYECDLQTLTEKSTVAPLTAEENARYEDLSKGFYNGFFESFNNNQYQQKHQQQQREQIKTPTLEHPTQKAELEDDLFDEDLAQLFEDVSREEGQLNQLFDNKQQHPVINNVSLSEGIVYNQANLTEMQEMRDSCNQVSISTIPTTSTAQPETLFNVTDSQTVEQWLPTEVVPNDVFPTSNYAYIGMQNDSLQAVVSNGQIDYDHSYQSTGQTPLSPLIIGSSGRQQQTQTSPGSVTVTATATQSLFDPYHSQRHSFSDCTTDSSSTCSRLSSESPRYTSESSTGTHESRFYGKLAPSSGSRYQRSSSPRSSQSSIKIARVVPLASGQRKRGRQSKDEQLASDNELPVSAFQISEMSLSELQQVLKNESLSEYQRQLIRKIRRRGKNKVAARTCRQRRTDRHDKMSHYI

[11] = molecular target: Paired box protein Pax-8 (Homo sapiens, UniProt Q06710); test: PAX8 transcriptional activity inhibition in RMG-I – RMG-I cells, luciferase, cherry-pick, dose response (AID 687027); assay type: functional, cell-based;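 note: luciferase reporter driven by Pax8 target thyroperoxidase promoter measured by SteadyGlo luminescence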
[12] = A549 cell cytotoxicity, dose response, cytotoxicity control, plate reader, cherry-pick, antagonist series (AID 743412); assay type: functional, cell-based
[13] = toxicity toward HepG2 liver cells – cell-based, plate reader, cherry-pick, antagonist series, cytotoxicity control, dose response (AID 743416); assay type: functional
[14] = blockers of bursicon-stimulated LGR2 cAMP reporter – cell-based, HEK293, CRE-luciferase reporter, cherry pick, set 2, dose response (AID 743343); assay type: functional;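 note: transfected cells were stimulated with diluted bursicon conditioned medium after compound addition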
[15] = general cell-killing toxicity readout – plate reader, dry powder samples, cytotoxicity control for PAX8 inhibitor project, dose response (AID 743021); assay type: functional, cell-based
[16] = blockade of melanocortin 4 receptor signaling – cell-based, plate reader, cherry pick, counter-screen for LGR2 antagonist project, dose response (AID 743444); assay type: functional;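 note: transfected HEK 293 cells stimulated with alpha-MSH peptide; potency of inhibitors of the alpha-MSH evoked signal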
[17] = viability loss in HEK293 cells – cell-based, plate reader, cherry-picked samples, cytotoxicity control, dose response (AID 743446); assay type: functional
[18] = molecular target: Major prion protein (Homo sapiens, UniProt P04156); assay type: functional, cell-based
[19] = cells
[20] = molecular target: Long-chain-fatty-acid--AMP ligase FadD28 (Mycobacterium tuberculosis, UniProt P9WQ59); test: Fluorescence polarization aasay to screen for inhibitors that compete for the binding of FadD28 to a bisubstrate Measured in Biochemical System Using Plate Reader - 2147-01_Inhibitor_Dose_CherryPick_Activity.; assay type: functional, Mycobacterium tuberculosis H37Rv
[21] = cells; remark: listed apart in the source
[22] = molecular target: Fructose-bisphosphate aldolase (Mycobacterium tuberculosis, UniProt P9WQA3); test: Fluorescence-based biochemical high throughput dose response assay for inhibitors of the fructose-bisphosphate aldolase (FBA) of M. tuberculosis.; assay type: functional
[23] = molecular target: T3, Methionyl-tRNA synthetase, putative (Trypanosoma brucei brucei, UniProt Q38C91); assay type: functional, Trypanosoma brucei brucei strain 927/4 GUTat10.1
T3 sequence (Q38C91 whole entry): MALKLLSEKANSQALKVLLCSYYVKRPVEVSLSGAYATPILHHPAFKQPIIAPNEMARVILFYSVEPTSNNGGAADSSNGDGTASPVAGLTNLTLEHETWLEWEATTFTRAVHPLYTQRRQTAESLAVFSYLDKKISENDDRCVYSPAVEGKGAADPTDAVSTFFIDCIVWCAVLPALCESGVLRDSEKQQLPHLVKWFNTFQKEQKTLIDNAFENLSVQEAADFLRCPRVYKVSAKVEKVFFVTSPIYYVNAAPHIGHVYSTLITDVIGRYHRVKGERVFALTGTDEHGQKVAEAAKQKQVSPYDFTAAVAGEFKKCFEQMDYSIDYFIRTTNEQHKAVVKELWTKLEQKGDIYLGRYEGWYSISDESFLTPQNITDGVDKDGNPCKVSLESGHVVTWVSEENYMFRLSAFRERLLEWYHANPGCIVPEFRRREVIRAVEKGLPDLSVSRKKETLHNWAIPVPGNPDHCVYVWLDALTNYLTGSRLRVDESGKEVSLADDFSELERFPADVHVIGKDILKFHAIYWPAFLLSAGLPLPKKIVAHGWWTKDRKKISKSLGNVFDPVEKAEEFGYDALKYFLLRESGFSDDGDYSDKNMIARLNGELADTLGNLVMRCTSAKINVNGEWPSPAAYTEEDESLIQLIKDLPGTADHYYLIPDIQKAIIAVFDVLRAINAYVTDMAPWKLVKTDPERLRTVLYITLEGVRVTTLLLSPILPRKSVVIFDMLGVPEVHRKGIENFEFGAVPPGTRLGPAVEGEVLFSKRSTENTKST

[24] = Counterscreen for inhibitors of Trypanosoma brucei methionyl tRNA synthetase (MetRS): Luminescence-based cell-based high throughput dose response assay to identify compounds that are cytotoxic to Jurkat human T lymphocyte cells.; assay type: functional
[25] = molecular target: T3, Methionyl-tRNA synthetase, putative; assay type: functional, Trypanosoma brucei brucei strain 927/4 GUTat10.1; remark: listed apart in the source
[26] = molecular target: Luciferin 4-monooxygenase (Photinus pyralis, UniProt P08659); test: inhibition of purified Photinus pyralis luciferase – biochemical, luminescence, dose response (AID 1891)
[27] = Luminescence Cell-Based Dose Confirmation HTS to Identify Inhibitors of Platelet Dense Granule Release. [Related pubchem assays: 1663 (Primary HTS), 1678 (Summary of Project)]; assay type: functional
[28] = molecular target: T4, Oxysterols receptor LXR-beta (Homo sapiens, UniProt P55055); assay type: functional, cell-based;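 note: agonist activity at LXR measured by a cell-based luminescence readout across a dose range, run as a counterscreen for daf-12 agonists; HEK293 cells with Gal4-LXR fusion and GAL4-driven luciferase reporter; potency for activation of Gal4-LXR reporter so compounds are agonists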
T4 sequence (P55055 whole entry): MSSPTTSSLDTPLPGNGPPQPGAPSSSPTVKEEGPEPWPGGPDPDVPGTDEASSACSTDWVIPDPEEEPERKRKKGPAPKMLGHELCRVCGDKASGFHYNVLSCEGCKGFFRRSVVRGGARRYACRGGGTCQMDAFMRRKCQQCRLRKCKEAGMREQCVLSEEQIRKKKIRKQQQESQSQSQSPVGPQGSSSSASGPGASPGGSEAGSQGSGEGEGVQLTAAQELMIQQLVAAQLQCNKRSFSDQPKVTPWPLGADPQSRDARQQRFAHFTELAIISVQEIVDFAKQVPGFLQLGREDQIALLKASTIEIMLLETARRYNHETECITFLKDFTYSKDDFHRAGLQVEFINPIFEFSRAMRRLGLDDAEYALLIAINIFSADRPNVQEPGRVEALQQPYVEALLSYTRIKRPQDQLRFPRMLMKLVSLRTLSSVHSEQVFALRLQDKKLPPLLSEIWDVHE

[29] = cytotoxicity in HEK293 background cells – cell-based, dry powder, set 2, counter-screen for EBV LMP1 inhibitor project, dose response (AID 624374); assay type: functional
[30] = viability loss in HeLa cells – cytotoxicity control for MgcRacGAP inhibitor project, dose response (AID 624300); assay type: functional
[31] = molecular target: T5, Rac GTPase-activating protein 1 (Homo sapiens, UniProt Q9H0H5); test: blockers of MgcRacGAP-driven Rac1 GTP hydrolysis – biochemical, ADP Hunter fluorescence, primary and confirmatory, confirmation (AID 624330); assay type: functional
T5 sequence (Q9H0H5 whole entry): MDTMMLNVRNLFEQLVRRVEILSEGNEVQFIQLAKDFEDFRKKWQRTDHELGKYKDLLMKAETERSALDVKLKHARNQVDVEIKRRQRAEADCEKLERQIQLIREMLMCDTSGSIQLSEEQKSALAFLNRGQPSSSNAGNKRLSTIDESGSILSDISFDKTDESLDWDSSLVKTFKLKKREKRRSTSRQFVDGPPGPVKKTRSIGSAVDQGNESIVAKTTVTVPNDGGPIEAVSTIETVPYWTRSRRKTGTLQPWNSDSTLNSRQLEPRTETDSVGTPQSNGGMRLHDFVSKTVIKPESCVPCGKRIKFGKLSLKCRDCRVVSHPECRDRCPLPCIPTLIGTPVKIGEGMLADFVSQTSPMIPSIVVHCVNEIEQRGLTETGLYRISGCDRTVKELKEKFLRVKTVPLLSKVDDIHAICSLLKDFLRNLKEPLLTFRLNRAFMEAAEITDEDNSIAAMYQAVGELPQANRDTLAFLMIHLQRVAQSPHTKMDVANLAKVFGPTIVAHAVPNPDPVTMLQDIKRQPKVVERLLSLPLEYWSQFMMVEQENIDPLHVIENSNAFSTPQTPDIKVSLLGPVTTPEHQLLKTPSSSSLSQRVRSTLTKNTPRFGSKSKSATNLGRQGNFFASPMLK

## COc1ccc(OC)c(S(=O)(=O)N2CCN(c3c(C)cccc3C)CC2)c1
[1]
  IC50: > 64 µM (inactive)
[2]
  AC50: 20.8 µM (active)

## CC(C)c1ccc(-c2nc3ccccc3s2)cc1
[3]
  EC50: 4.67 µM (active)
[4]
  IC50: 0.478 µM (active)
[5]
  EC50: < 0.16 µM (active)
[6]
  IC50: > 20 µM (inactive)
[7]
  EC50: 0.02 µM (active)
[8]
  IC50: 3.21 µM (active)
[9]
  IC50: > 20 µM (inactive)
[10]
  IC50: 75.6 µM (inactive)
[11]
  AC50: 5.31 µM (active)
[12]
  AC50: 22.8 µM (active)
[13]
  AC50: > 52 µM (inactive)
[14]
  AC50: 0.133 µM (active)
[15]
  AC50: 7.87 µM (active)
[16]
  AC50: < 0.068 µM (active)
[17]
  AC50: 34 µM (active)

## COc1ccc(NC(=O)CCSc2ccc3ccccc3n2)cc1
[18]
  IC50: 4.52 µM (active)
[19]
  IC50: > 138 µM (inactive)

## COc1cc(C(S)=NCc2ccccc2)cc(Br)c1O
[20]
  AC50: 53.6 µM (active)

## COc1cccc2c(=O)c3c(cnn3C)n(C)c12
[21]
  AC50: 2.16 µM (active)

## Cc1cc(OCC(=O)NCCc2ccc(S(N)(=O)=O)cc2)c2c(C)c(C)c(=O)oc2c1
[22]
  IC50: 1.1 µM (active)

## COc1ccc(CCN2C(=S)N(C)C(=O)C2CC(=O)Nc2ccc(F)cc2)cc1 (stereo unspecified)
[23]
  IC50: 6.54 µM (active)
[24]
  IC50: 32.7 µM (inactive)
[25]
  IC50: 2.69 µM (active)

## Cc1csc(NC(=O)c2cn3ccccc3n2)n1
[26]
  EC50: 8.32 µM (active)
[27]
  EC50: 4.85 µM (active)
[12]
  AC50: > 52 µM (inactive)
[13]
  AC50: > 52 µM (inactive)
[14]
  AC50: 2.16 µM (active)
[16]
  AC50: 1.92 µM (active)
[17]
  AC50: 47.2 µM (active)

## CCOC(=O)c1ccc(NC(S)=NNC(=O)C2(C)CC2(Cl)Cl)cc1 (stereo unspecified)
[20]
  AC50: 13.8 µM (active)

## CCN1C(=O)C(CC(=O)Nc2ccc(OC)cc2)N(CCc2ccc(OC)cc2)C1=S (stereo unspecified)
[23]
  IC50: 13.1 µM (inactive)
[24]
  IC50: 52.4 µM (inactive)
[25]
  IC50: 5.11 µM (active)

## O=C(CC(=O)c1cccs1)c1ccncc1
[28]
  EC50: > 67.5 µM (inactive)

## CN(C)/C=N/C(=S)Nc1ccc(Cl)cc1
[28]
  EC50: > 67.5 µM (inactive)

## Cc1noc(C)c1S(=O)(=O)Nc1ccc2c(c1)C(=O)N([C@@H](C)CO)C[C@@H](C)[C@H](CN(C)Cc1ccc(C(F)(F)F)cc1)OCCCC[C@H](C)O2
[29]
  AbsAC35: 151.31 µM

## Cc1c(O)ccc(/C(Cc2ccc3ccccc3n2)=N\O)c1O
[30]
  CC50: 100 µM (active)
[31]
  IC50: 62.1 µM (active)
